Measured values: patent publication US20100239556A1, “PROMOTING ECM PRODUCTION BY FIBROBLAST CELLS AND/OR PROMOTING MIGRATION OF FIBROBLAST CELLS IN A BIOLOGICAL SYSTEM” (TGR BioScience Pty Ltd., priority 2006, published 2010)

Key:
dermis = test: Cellular integration and ECM production of dermal filler substances implanted intradermally; assay type: in vivo, Sprague-Dawley rats; settings: one month after implantation; for cellular integration and ECM production within Hylaform: LP 1 mg/ml or HRP 500 μg/ml added to Hylaform, or Hylaform alone; for cellular integration and ECM production within Restylane: LP 1 mg/ml or HRP 500 μg/ml added to Restylane, or Restylane alone
Method: The ability of agents with peroxidase activity to stimulate the production of endogenous ECM within, or about, a substrate when implanted in vivo was assessed. Substrates used for these experiments were two hyaluronic acid based dermal filler substances; Hylaform® Plus containing 5.5 mg/ml hylan B gel and Restylane® containing 20 mg/ml stabilised hyaluronic acid, and Sculptra® containing poly-L-lactic acid. The two pre-prepared “ready to use” hyaluronic acid filler substances were diluted 1:2 with 1 mg/ml HRP to give a final concentration of 500 μg/ml HRP whilst Sculptra powder was dissolved in a lmg/ml LP solution to final concentrations of 25 and 50 mg/ml poly-L-lactic acid. As described in example 8, female Sprague-Dawley rats were lightly anaesthetized and a volume of approximately 50 μl of the filler substance+protein with peroxidase activity or filler substance alone were injected intradermally into different sites on their dorsum. The rats were returned to their cage and left alone for 7 days or 1 month after which they were killed by CO2 asphyxiation and the skin at the injection sites collected for histological assessment as described in example 8, or immunohistochemical staining for collagen I using the method outlined previously for the SMA immunohistochemistry (in Example 3) with the variation that 5 μg/ml rabbit anti Collagen-I (Rocklands Immunochemicals) was used as the primary antibody.

[1] = tested on: primary-adult fibroblast cells; test: Fibroblast infiltration into INTEGRA scaffold (SMA immunohistochemistry); assay type: cell-based, human
Source text: INTEGRA® was cut into lcm x lcm pieces using a sterile scalpel, the pieces transferred to a petri dish using sterile forceps and washed four times each with PBS followed by serum-free DMEM, to remove the alcohol storage medium and to equilibrate the porous scaffold for exposure to cells. After the last wash, the INTEGRA® pieces were transferred to the wells of a 12 well tissue culture plate (collagen layer facing up) immersed in media containing proteins having peroxidase activity. This “pre-treatment” of the INTEGRA® with proteins having peroxidase activity was performed for up to 16 hours at 37° C. in a CO2 incubator. After the “pre-incubation” period, the media was replaced with fresh DMEM supplemented with 10% FBS (ie normal growth media as the control) containing 5×10^5 human fibroblast cells plus or minus proteins having peroxidase activity. After allowing 24 hours for the fibroblast cells to attach to the collagen matrix of the INTEGRA® scaffold, the INTEGRA® pieces were transferred to fresh 12 well plates to ensure any cells not attached to the matrix surface were removed. Fresh media containing proteins with peroxidase activity were added to the wells and the INTEGRA® pieces incubated for up to 14 days (“post-treatment” period) with the media changed every 7 days as necessary. […]

[2] = tested on: adult primary fibroblast cells and HFF cells; test: Organisation of collagen fibers on coverslips (collagen I immunohistochemistry); assay type: cell-based, human; settings: treated up to 7 days
Method: ECM, rather than disorganized ECM which would increase the risk of scar formation within the dermis and contribute to the generation of structurally and functionally impaired replacement tissue, additional experiments were performed to visualize the collagen fibers formed by fibroblast cells stimulated with proteins having peroxidase activity. These experiments involved growing adult primary fibroblast cells and HFF cells on microscope slide coverslips placed into each well of six well tissue culture plates. Each well containing a coverslip was seeded with 1.5×10^5 cells and after one week of culture, the cells were treated with a range of proteins having peroxidase activity for up to 7 days. At the end of the experiment, the cell media was removed and the cells and cell-associated ECM fixed by the addition of 10% formalin. The coverslips were removed from the tissue culture plate and stained immunohistochemically for collagen I using the method outlined in Example 3 for the SMA immunohistochemistry with the variation that 5 μg/ml rabbit anti Collagen-I (Rocklands Immunochemicals) was used as the primary antibody.

| Molecule | cellular integration and ECM production within Hylaform (dermis) | cellular integration and ECM production within Restylane (dermis) | cells within the interstices of the INTEGRA scaffold ([1]; 25 μg/ml before and after addition of cells, 7 days, versus 7 and 14 day controls) | collagen fibers in the cell-associated ECM [2] | cells within the INTEGRA scaffold ([1]; 25 μg/ml, 14 days of treatment) |
| --- | --- | --- | --- | --- | --- |
| lactoperoxidase [LP] | surprising increase in cellular infiltration and integration and cell-associated ECM production | surprising increase in cellular infiltration and integration and cell-associated ECM production | – | – | – |
| soy bean peroxidase [SBP] | – | – | many more cells were evident within the interstices of the scaffold | – | – |
| microperoxidase [MP] | – | – | – | collagen was not the major ECM protein deposited | – |
| horse radish peroxidase (protein, UniProt P00433 31-338, looked up) Peroxidase C1A: QLTPTFYDNSCPNVSNIVRDTIVNELRSDPRIAASILRLHFHDCFVNGCDASILLDNTTSFRTEKDAFGNANSARGFPVIDRMKAAVESACPRTVSCADLLTIAAQQSVTLAGGPSWRVPLGRRDSLQAFLDLANANLPAPFFTLPQLKDSFRNVGLNRSSDLVALSGGHTFGKNQCRFIMDRLYNFSNTGLPDPTLNTTYLQTLRGLCPLNGNLSALVDFDLRTPTIFDNKYYVNLEEQKGLIQSDQELFSSPNATDTIPLVRSFANSTQTFFNAFVEAMDRMGNITPLTGTQGQIRLNCRVVNSNS | Increased cellular integration and ECM production | Increased cellular integration and ECM production | – | strongly stained, parallel collagen fibers | even greater number of cells evident within the scaffold |
